Laboratory results: patent US10144727B2, “Deoxynojirimycin derivatives and methods of their using” (priority 2013, dated 2018)
“Also recorded” adds a separate entry of the source.

Tests used:
[1] = 100 mg/kg oral TID; for Survival without a viral challenge: uninfected, n=3
[2] = system: influenza A/Texas/36/91 (H1N1); test: Efficacy of selected iminosugars in mice; Influenza A/Texas/36/91 (H1N1) challenge; format: in vivo, BALB/c mice; settings: for Survival versus untreated/vehicle control group / Survival rate / MTD: 100 mg/kg oral TID for 10 days; for Survival rate / MTD: infected ~1 LD90
Procedure: (§1) Study Summary: This study analyzed the toxicity and efficacy of UV-8, UV-9, UV-10, UV-11, and UV-12 in mice during an H1N1 influenza infection. […] In the current study, we examined delivery doses of UV-4B. UV-8, UV-9, UV-10. UV-11 and UV-12 at 100 mg/kg, delivered ter in die by the oral route (intragastric via oral gavage or IG. Small groups (n=3) that were included to examine gross toxicity received 100 mg/kg of the iminosugars but without a viral challenge. UV-4B, UV-8. UV-9, UV-10. UV-11 or UV-12 was delivered to the animals starting at 1 hour before intranasal infection (IN) with ˜1 LD90 of influenza A/Texas/36/91 (H1N1). Animals were then treated TID for 10 days total (days 0-9 post infection). Efficacy was evaluated by comparing survival, temperature changes, and weight gain/loss to an infected untreated control group.
This study aimed to determine the efficacy of UV-8. UV-9, UV-10, UV-11, and UV-12 when administered orally at 100 mg/kg TID against a lethal intranasal infection with influenza virus A/Texas/36/91 (H1N1) in the BALB/c mouse model. In addition to the efficacy arm, each of the iminosugars was tested in a small group of animals with the same treatment regimen (100 mg/kg, oral gavage, TID) in the absence of a viral infection to examine gross toxicity of each analog (general health, weight, temperature, and mortality evaluations).
UV-8, -9, -10, -11, -12, and UV-4B were prepared in H2O at 20 mg/ml for a delivery dose of 100 mg/kg, assuming ˜20 g mice given 0.1 mL of compound. Groups of BALB/c mice were treated at one hour before (−1 h) intranasal infection with ˜1 LD90 of INFV A/Texas/36/91 (H1N1) and then compounds were administered three times daily for a total of 10 days (see Table 12 for study design summary). Weights, temperature, and survival were monitored and used for evaluation of protective efficacy and toxicity of each analog.
3. The groups of mice challenged with influenza were anesthetized with 5% Isofluorene and maintained at 2.5% prior to intranasal inoculation with ˜1 LD90 of INFV in 100 μL PBS.
1. Mice were treated starting at 1 hour before infection with 100 μL of compound in H2O (see Table 12 for dosing regimens) three times a day for 10 days total with 100 mg/kg of UV-4B, UV-8, UV-9, UV-10, UV-11, or UV-12 compound given by the oral route (intragastric via oral gavage). 2. After dosing, mice were returned to their cages and monitored for any distress related to dosing.
(§2) 1. Mice were observed through 13 days post infection (14 days total, 0-13 days post infection).
(§3) 2. Mice were weighed daily on an Ohause scale and the weights were recorded.
3. All animals had chips implanted that monitored the body temperature. The temperatures were recorded daily.
4. Survival and health of each mouse was evaluated three times a day using a scoring system of 1-7.
5. Mice were euthanized when scored at 5 or above (Very Sick; Very Rufftled Coat; Closed, inset eyes; Slow to no movement; Will return to upright position if put on its side; extremely lethargic).

[3] = system: influenza A/Texas/36/91 (H1N1); test: Efficacy of UV-12 and UV-28 against lethal INFV A/Texas/36/91 (H1N1) challenge in mice; format: in vivo, BALB/c mice; settings: for % Survival / Mean Survival: ~1LD90 intranasal; for Health score recovery of infected mice: 100 mg/kg TID; for Weight recovery of infected mice: treated infected mice
Procedure: Study Summary: This study tested the ability of iminosugars UV-12 and UV-28 to protect mice from lethal influenza infection (˜1LD90 of influenza A/Texas/36/91 (H1N1) administered intranasally). Compounds were delivered 30-60 minutes prior to viral challenge via the oral (IG) route at 100 or 40 mg/kg and continued three times daily for 10 days. The mice used were ˜20 gram, 6-8 week old female BALB/c mice in groups of 10 for efficacy (a summary of the study groups is shown in Table 1). Temperature and weights were taken daily. Endpoint was day 14 post infection, death, or euthanasia. Animals displaying severe illness as determined by >30% weight loss, extreme lethargy, or paralysis were euthanized.
This study tested the ability of UV-12 and UV-28 to protect mice from lethal influenza infection. The mice used were 6-8 week old female BALB/c mice in groups of 10 (see Table 5 below). Mice were treated with 100 or 40 mg/kg three times daily (TID) via IG route starting approximately 30-60 minutes prior to challenge. Mice were challenged with ˜1 LD90 of influenza A/Texas/36/91 (H1N1) administered intranasally (IN). Endpoint was day 14 post infection, death, or euthanasia. Animals displaying severe illness as determined by >30% weight loss, extreme lethargy, or paralysis were euthanized. Temperature and weights were taken daily.
3. The groups of mice challenged with INFV were infected via intranasal (IN) inoculation with ˜1×LD90 in 100 μL of a 1:500 dilution of INFV in PBS under light anesthesia (Isoflurane).
1. Mice were treated with 100 or 40 mg/kg of test article given by the IG route in 100 μL of water (see Table 5 for dosing regimens) three times daily for 10 days.
as §2, §3
3. All animals had chips implanted at least 3 days prior to virus challenge that monitored the body temperature. The temperatures were recorded daily.
4. Survival and health of each mouse was evaluated once time a day using a scoring system of 1-7.
FIG. 1 is a plot presenting survival data of infected mice grouped by treatment. The survival data plotted in FIG. 1 were analyzed using the Mantel-Cox (Log rank) test in GraphPad Prism.

DENV2 Strain S221 = test: Survival analysis of UV-12 in A129 ADE model of dengue infection; format: in vivo, A129 mice; settings: 100 mg/kg/dose orally 3x per day for 7 days, first dose 1 hr before IV challenge
From the text: Purpose: This study determined the efficacy of UV-12 in promoting survival of mice challenged with dengue virus. Compound were given by the oral route (3× per day intragastric via oral gavage—IG) for a total number of 7 days after the start of dosing. The experiment used the A129 ADE model of infection. (Prestwood T R, Morar M M, Zellweger R M, Miller R, May M M, Yauch L E, Lada S M. Shresta S. Gamma interferon (IFN-γ) receptor restricts systemic dengue virus replication and prevents paralysis in IFN-α/β receptor-deficient mice. J Virol. 2012 December; 86(23):12561-70.) Animals received the virus challenge dose ˜1 LD90 on day 0. The first dose was given 0.5-1 hr pre-virus challenge. Survival was measured until 30 days after infection.
Mice: Sex matched 5-6 weeks old A129 (129/SV IFN-α, -β receptor^−/−)
Iminosugar: Orally 3× day, (gavage (IG)) every 8 hours
Antibody and Iminosugar Compound were given simultaneously, then virus within 30 minutes
Antibody: 100 μg 2H2 (IgG2a anti-DENV1-4 prM) from ATCC, day 0 and day 1 in 40 ul
Virus: DENV2 Strain S221 (v512) (Zellweger R M, Prestwood T R, Shresta S.
Dose: 1E11 GE (genomic equivalents) per animal
Animal survival. Animals displaying severe illness (as determined by 20% weight loss, extreme lethargy, ruffled coat, or paralysis) are euthanized.
FIG. 5 presents results of this study. […]

H1N1 = test: Previous studies: oral UV-4B TID at 100 mg/kg against H1N1; format: in vivo; settings: oral TID at 100 mg/kg
Procedure: as §1

Row | SMILES | Survival without a viral challenge [1] | Survival versus untreated/vehicle control group [2] | Survival rate [2] | MTD [2] | other results
1 | OCC1C(O)C(O)C(O)CN1CCCCCCCCC1CCCO1 (mixture of isomers) [UV-12] | 100% | significant increase in survival | 90% |  | Recovery after dosing regimen completed, uninfected mice [1]: able to fully recover; Toxicity in the uninfected group [1]: mild toxicity with steady weight loss; Weight loss overall in uninfected mice [1]: ≤ 10%; Overall temperature and weight versus vehicle control ([2]; 100 mg/kg oral TID, infected mice): significant increases in overall temperature and weight; % Survival ([3]; 40 mg/kg TID IG for 10 days): 20%; Mean Survival ([3]; 40 mg/kg TID IG for 10 days): 9 days; % Survival ([3]; 100 mg/kg TID IG for 10 days): 100%; Mean Survival ([3]; 100 mg/kg TID IG for 10 days): >13 days; Health score recovery of infected mice ([3]; FIG. 4): fully recovered from the infection and returned to normal; Weight recovery of infected mice [3]: almost completely recovered; Survival compared to control animals (DENV2 Strain S221): increased survival
2 | COCCCCCCCCCN1C[C@H](O)[C@@H](O)[C@H](O)[C@H]1CO [UV-4B, N-9-methoxynonyl-deoxynojirimycin, reference compound] |  | significant increase in survival | 100% |  | Efficacy against H1N1 (H1N1): resulted in efficacy; Signs of toxicity (H1N1): did not show any discernible signs of toxicity
3 | COCCCCCCCCC(=O)N1C[C@H](O)[C@@H](O)[C@H](O)[C@H]1CO [UV-8] | 100% | did not show any improvement in survival; also recorded: no significant difference from the vehicle control group | 30% | 10.5 days | 
4 | COCCCCCCCOC(=O)N1C[C@H](O)[C@@H](O)[C@H](O)[C@H]1CO [UV-9] | 100% | did not show any improvement in survival | 0% | 7 days | 
5 | COC(=O)CCCCCCCCN1C[C@H](O)[C@@H](O)[C@H](O)[C@H]1CO [UV-10] | 100% | did not show any improvement in survival | 0% | 7.5 days | 
6 | OCCCCCCCCCN1C[C@H](O)[C@@H](O)[C@H](O)[C@H]1CO [UV-11] | 100% | did not show any improvement in survival | 0% | 8 days | 
7 | COC(C)(C)CCCCCCCCN1C[C@H](O)[C@@H](O)[C@H](O)[C@H]1CO [UV-28] |  |  |  |  | % Survival ([3]; 40 mg/kg TID IG for 10 days): 60%; Mean Survival ([3]; 40 mg/kg TID IG for 10 days): >13 days; % Survival ([3]; 100 mg/kg TID IG for 10 days): 100%; Mean Survival ([3]; 100 mg/kg TID IG for 10 days): >13 days; Health score recovery of infected mice ([3]; FIG. 4): never recovered their health score; Toxicity compared (health scores) ([3]; FIG. 4): more toxic than UV-12; Weight recovery of infected mice [3]: did not recover their weight as well
